How the values were obtained:
MOLM-13 cells = test: MOLM-13 cellular assay (CellTiter-Glo cell viability); format: cell-based; settings: 72 hours exposure, cell viability by CellTiter-Glo
Experimental: In Vitro Assay: MOLM-13 Cellular Assay
MOLM-13 cells were obtained from DSMZ and were maintained in RPMI 1640+Glutamax+25 mM HEPES (Invitrogen, catalog number 72400) supplemented with 10% heat inactivated fetal bovine serum (FBS; Invitrogen, catalog number 16140). The day prior to assay set-up, cells were pelleted, resuspended in fresh media, counted, and cells were plated at 0.4×10^6 cell/mL in a T150 flask. On the day of the assay, cells were pelleted, resuspend in fresh media, counted and seeded at 5,000 cells/well in white opaque 96-well tissue culture treated microplates (Perkin Elmer, catalog number 6005680). Cells were exposed to different concentrations of test compounds at 37° C., 5% CO2 for 72 hours immediately after seeding. Cell viability was acquired on a Perkin Elmer Envision 2104 multilabel reader using the CellTiter-Glo assay (Promega) according to the manufacturer's instructions.

human DHODH = target: T1, human DHODH (Homo sapiens, UniProt Q02127); test: DHODH enzymatic assay (DCIP absorbance, end-point); format: biochemical; settings: purified human DHODH, DCIP as final electron acceptor, end-point mode; read-out: hDHODH IC50
T1 construct: purchased Proteros PR-0044
Experimental: In vitro Assay: DHODH enzymatic assay
To detect DHODH enzyme activities, dichloroindophenol (DCIP) is added as the final electron acceptor in the assay. DCIP can accept electrons from the reduced coenzyme Q generated in the assay, or from dihydroorotate (DHO) via FMN by binding presumably to the ubiquinone pocket. […] The assay buffer contained […], pH 7.5, 150 mM NaCl, 0.5 mM EDTA, and 0.1% Triton X-100 in MilliQ water. Substrate consisting of 20 mM DHO, 5 mM CoQ6, and 1 mM DCIP in assay buffer, initiates the reaction. […] Absorbance measurements were obtained using the BMG Phera Star plate-reading spectrophotometer. Purified human DHODH was purchased from Proteros (cat. No. PR-0044). Chemicals were purchased from Sigma-Aldrich, Teknova, and Avanti Polar Lipids. Liquid handling was performed using Labcyte Echo and Formulatrix Tempest.

T1 sequence (Q02127 whole entry): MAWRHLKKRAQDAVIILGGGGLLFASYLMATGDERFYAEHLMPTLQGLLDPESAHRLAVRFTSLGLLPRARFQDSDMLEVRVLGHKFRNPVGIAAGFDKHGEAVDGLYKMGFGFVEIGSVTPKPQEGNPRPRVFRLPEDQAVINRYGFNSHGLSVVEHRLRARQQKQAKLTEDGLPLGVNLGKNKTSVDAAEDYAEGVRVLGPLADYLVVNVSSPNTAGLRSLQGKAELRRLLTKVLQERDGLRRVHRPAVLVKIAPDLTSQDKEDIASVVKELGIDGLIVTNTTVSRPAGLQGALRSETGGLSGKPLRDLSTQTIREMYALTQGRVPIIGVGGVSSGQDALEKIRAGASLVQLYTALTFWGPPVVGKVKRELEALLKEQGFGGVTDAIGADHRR

Row | IC50 (MOLM-13 cells; Homo sapiens, MOLM-13, 72 h) | IC50 (human DHODH) | IC50 (MOLM-13 cells) | Compound
1 |  | 90 nM | 114 nM | C=C(C)[C@H]1CN(c2c(C)cc(C)nc2Cl)C(=O)c2cc(F)c(-n3nc(CO)n(CC)c3=O)cc21 (single isomer, unassigned; atropisomer 2) [Example 61, Atropisomer 2, (R*)-2-(2-Chloro-4,6-dimethylpyridin-3-yl)-6-(4-ethyl-3-(hydroxymethyl)-5-oxo-4,5-dihydro-1H-1,2,4-triazol-1-yl)-7-fluoro-4-(prop-1-en-2-yl)-3,4-dihydroisoquinolin-1(2H)-one]
2 |  | > 100 nM | 359 nM | C=C(C)[C@H]1CN(c2c(C)cnc(OC)c2Cl)C(=O)c2cc(F)c(-n3nc(CO)n(CC)c3=O)cc21 (single isomer, unassigned; atropisomer 1) [Example 63, Atropisomer 1, (R *)-2-(3-Chloro-2-methoxy-5-methylpyridin-4-yl)-6-(4-ethyl-3-(hydroxymethyl)-5-oxo-4,5-dihydro-1H-1,2,4-triazol-1-yl)-7-fluoro-4-(prop-1-en-2-yl)-3,4-dihydroisoquinolin-1(2H)-one]
3 |  | > 100 nM | 26.8 nM | C=C(C)[C@@H]1CN(c2c(C)cc(C)nc2Cl)C(=O)c2cc(F)c(-n3nc(CO)n(CC)c3=O)cc21 (single isomer, unassigned; atropisomer 1) [Example 60, Atropisomer 1, (S*)-2-(2-Chloro-4,6-dimethylpyridin-3-yl)-6-(4-ethyl-3-(hydroxymethyl)-5-oxo-4,5-dihydro-1H-1,2,4-triazol-1-yl)-7-fluoro-4-(prop-1-en-2-yl)-3,4-dihydroisoquinolin-1(2H)-one]
4 |  | 0.3 nM | < 1.69 nM | C=C(C)C1CN(c2c(F)cccc2Cl)C(=O)c2cc(F)c(-n3nc(CO)n(CC)c3=O)cc21 (single isomer, unassigned) [Example 69, (S*)-2-(2-Chloro-6-fluorophenyl)-6-(4-ethyl-3-(hydroxymethyl)-5-oxo-4,5-dihydro-1H-1,2,4-triazol-1-yl)-7-fluoro-4-(prop-1-en-2-yl)-3,4-dihydroisoquinolin-1(2H)-one]
5 |  | 2 nM | 4.66 nM | C=C(C)C1CN(c2c(F)cccc2Cl)C(=O)c2cc(F)c(-n3nc(CO)n(CC)c3=O)cc21 (single isomer, unassigned) [Example 68, (R*)-2-(2-Chloro-6-fluorophenyl)-6-(4-ethyl-3-(hydroxymethyl)-5-oxo-4,5-dihydro-1H-1,2,4-triazol-1-yl)-7-fluoro-4-(prop-1-en-2-yl)-3,4-dihydroisoquinolin-1(2H)-one]
6 |  | > 100 nM | 29.7 nM | C=C(C)[C@H]1CN(c2c(C)cnc(OC)c2C)C(=O)c2cc(F)c(-n3nc(CO)n(CC)c3=O)cc21 (single isomer, unassigned; atropisomer 2) [Example 57, Atropisomer 2, (R*)-6-(4-Ethyl-3-(hydroxymethyl)-5-oxo-4,5-dihydro-1H-1,2,4-triazol-1-yl)-7-fluoro-2-(2-methoxy-3,5-dimethylpyridin-4-yl)-4-(prop-1-en-2-yl)-3,4-dihydroisoquinolin-1(2H)-one]
7 | 4.3 nM | 4 nM |  | CC[C@H](C)[C@H]1CN(c2c(F)cccc2Cl)C(=O)c2cc(F)c(-n3nc(CO)n(CC)c3=O)cc21 (relative stereo) [Example 71, (R*)-4-((S *)-sec-B utyl)-2-(2-chloro-6-fluorophenyl)-6-(4-ethyl-3-(hydroxymethyl)-5-oxo-4,5-dihydro-1H-1,2,4-triazol-1-yl)-7-fluoro-3,4-dihydroisoquinolin-1(2H)-one]

Second part, the compound before the results:

Row | Compound | IC50 (MOLM-13 cells; Homo sapiens, MOLM-13, 72 h) | IC50 (human DHODH) | IC50 (MOLM-13 cells)
8 | C=C(C)[C@@H]1CN(c2ccccc2Cl)C(=O)c2cc(F)c(-n3nc(CO)n(CC)c3=O)cc21 (stereo in doubt) [Example 34] | 1.06 nM | 0.9 nM | 
9 | CCn1c(CO)nn(-c2cc3c(cc2F)C(=O)N(c2c(F)cccc2Cl)CN3C2CCC2)c1=O [Example 19, 3-(2-Chloro-6-fluorophenyl)-1-cyclobutyl-7-(4-ethyl-3-(hydroxymethyl)-5-oxo-4,5-dihydro-1H-1,2,4-triazol-1-yl)-6-fluoro-2,3-dihydroquinazolin-4(1H)-one] | 2.57 nM | 3 nM | 
10 | C=C(C)[C@@H]1CN(c2c(C)cnc(OC)c2C)C(=O)c2cc(F)c(-n3nc(CO)n(CC)c3=O)cc21 (single isomer, unassigned; atropisomer 1) [Example 54, Atropisomer 1, (S*)-6-(4-Ethyl-3-(hydroxymethyl)-5-oxo-4,5-dihydro-1H-1,2,4-triazol-1-yl)-7-fluoro-2-(2-methoxy-3,5-dimethylpyridin-4-yl)-4-(prop-1-en-2-yl)-3,4-dihydroisoquinolin-1 (2H)-one] |  | 20 nM | 2.2 nM
11 | CCn1c(CO)nn(-c2cc3c(cc2F)C(=O)N(c2ccccc2Cl)CC3C(C)C)c1=O (single isomer, unassigned) [Example 36, (S*)-2-(2-Chlorophenyl)-6-(4-ethyl-3-(hydroxymethyl)-5-oxo-4,5-dihydro-1H-1,2,4-triazol-1-yl)-7-fluoro-4-isopropyl-3,4-dihydroisoquinolin-1(2H)-one] |  | 30 nM | 31.6 nM
12 | C=C(C)C1CN(c2c(C)n[nH]c2Cl)C(=O)c2cc(F)c(-n3nc(CO)n(CC)c3=O)cc21 (single isomer, unassigned) [Example 49, (R *)-2-(5-Chloro-3-methyl-1H-pyrazol-4-yl)-6-(4-ethyl-3-(hydroxymethyl)-5-oxo-4,5-dihydro-1H-1,2,4-triazol-1-yl)-7-fluoro-4-(prop-1-en-2-yl)-3,4-dihydroisoquinolin-1(2H)-one] |  | 10 nM | 2.28 nM
13 | CCn1c(CO)nn(-c2cc3c(cc2F)C(=O)N(c2c(C)ccnc2Cl)CN3C(C)C)c1=O [Example 28, 3-(2-Chloro-4-methylpyridin-3-yl)-7-(4-ethyl-3-(hydroxymethyl)-5-oxo-4,5-dihydro-1H-1,2,4-triazol-1-yl)-6-fluoro-1-isopropyl-2,3-dihydroquinazolin-4(1H)-one] | 36.1 nM | 20 nM | 
14 | C=C(C)[C@H]1CN(c2c(C)cnc(OC)c2C)C(=O)c2cc(F)c(-n3nc(CO)n(CC)c3=O)cc21 (single isomer, unassigned; atropisomer 1) [Example 55, Atropisomer 1, (R *)-6-(4-Ethyl-3-(hydroxymethyl)-5-oxo-4,5-dihydro-1H-1,2,4-triazol-1-yl)-7-fluoro-2-(2-methoxy-3,5-dimethylpyridin-4-yl)-4-(prop-1-en-2-yl)-3,4-dihydroisoquinolin-1(2H)-one] |  | > 100 nM | 1160 nM
15 | CCn1c(CO)nn(-c2cc3c(cc2F)c(=O)n(-c2c(F)cccc2Cl)c(=O)n3C(C)C)c1=O [Example 4, 3-(2-Chloro-6-fluorophenyl)-7-(4-ethyl-3-(hydroxymethyl)-5-oxo-4,5-dihydro-1H-1,2,4-triazol-1-yl)-6-fluoro-1-isopropylquinazoline-2,4(1H,3H)-dione] | 4.4 nM | 110 nM | 
16 | C=C(C)C1CN(c2cc(C)ccc2F)C(=O)c2cc(F)c(-n3nc(CO)n(CC)c3=O)cc21 (racemic) [Example 38, Racemic-6-(4-ethyl-3-(hydroxymethyl)-5-oxo-4,5-dihydro-1H-1,2,4-triazol-1-yl)-7-fluoro-2-(2-fluoro-5-methylphenyl)-4-(prop-1-en-2-yl)-3,4-dihydroisoquinolin-1(2H)-one] | 36.3 nM | 30 nM | 
